Source: paper PMC5583328, “Probing the potential of mucus permeability to signify preterm birth risk” (Scientific Reports, 2017)
Where a SMILES comes first, the peptide text is derived from it. The star is where a group is joined. 6FAM = O=C1OC2(c3ccc(O)cc3Oc3cc(O)ccc32)c2cc(C(=O)*)ccc21

Assay: Microfluidic peptide partitioning and transport through cervical mucus
Type: in vitro ADME, human
Conditions: for average maximum concentration of peptide accumulated inside mucus (enrichment at mucus-buffer interface): 15-min experiment; for average maximum concentration of peptide accumulated inside mucus (enrichment at mucus-buffer interface) / concentration of the peptide at the end of the channel (450 μm): mean (SD)
Description: We quantified partitioning and transport of the reporter peptides through mucus using a previously described microfluidics device, [38]. With this setup, a continuous aqueous flow of fluorescent peptides is generated within a micron-scale channel at carefully controlled rates adjacent to a stable mucus layer. The small sample volume (5 μL) required for this system is ideally suited for the study of native mucus samples, which are typically not available in large volumes. The peptide solutes partition into the mucus layer, and their subsequent transport is monitored with fluorescence microscopy (Fig. 3a and b).
We quantified the transport of (+) and (−) charged peptides in mucus from 20 ovulating, 15 low-risk pregnant, and 9 high-risk pregnant patients (Table 2; see the table caption for specific information on cohort composition). […] Peptides at a concentration of 4 μM were introduced into the microfluidic channel in the presence of the mucus sample or in the presence of buffer. […] Concentration profiles of the fluorescent peptides were acquired through the center cross - section of the mucus channel (Fig. 3a,b, Methods).
Peptides were synthesized, purified, and identified by the Swanson Biotechnology Center at the Koch Institute at MIT (Cambridge, MA, USA). […] Peptides were purified using reverse-phase high performance liquid chromatography. […] Before use in the microfluidic device, peptides were dissolved in H7 buffer (20 mM HEPES, 20 mM NaCl, pH 7) at a final concentration of 4 μM.
Microfluidic polydimethylsiloxane devices were designed and fabricated as previously described, [38], and cured at 95 °C for 48–72 h prior to use. Devices bonded to microscope slides were mounted on an inverted epifluorescence microscope (IX-71, Olympus American, Central Valley, PA; or Zeiss Observer Z1) equipped with a 5x or 10x objective and LED light source or mercury lamp (excitation at 450–495 nm or 475 nm, respectively). All channels were washed with H7 buffer before use. The two valves were closed or opened by applying or releasing pressure with a 3-mL syringe connected to the valves via polytetrafluoroethylene tubing. All experiments were carried out at room temperature. One to two microliters of sample were injected to fill the main channel. The two valves were closed while the inlet and outlet channels were washed with H7 buffer. The top valve was opened, exposing the mucus interface. Twenty-five microliters of peptide solution were added to the reservoir of each inlet. The flow rate of the peptide solution into the inlet channel was determined by gravitational flow. […] At least two successful experimental replicates were obtained for each patient mucus sample, except for one sample of cervical mucus, for which only one measurement was obtained.
Images were analyzed using ImageJ (v1.47; Wayne Rasband, National Institutes of Health, Bethesda, MD, USA; http://imagej.nih.gov/ij) and MATLAB software.

C[C@H](NC(=O)c1ccc2c(c1)C1(OC2=O)c2ccc(O)cc2Oc2cc(O)ccc21)C(=O)N[C@@H](CCCCN)C(=O)N[C@@H](C)C(=O)N[C@@H](CCCCN)C(=O)N[C@@H](C)C(=O)N[C@@H](CCCCN)C(=O)N[C@@H](C)C(=O)N[C@@H](CCCCN)C(=O)N[C@@H](C)C(=O)N[C@@H](CCCCN)C(=O)N[C@@H](C)C(=O)N[C@@H](CCCCN)C(=O)N[C@@H](C)C(=O)N[C@@H](CCCCN)C(=O)N[C@@H](C)C(=O)N[C@@H](CCCCN)C(=O)N[C@@H](C)C(=O)N[C@@H](CCCCN)C(=O)N[C@@H](C)C(=O)N[C@@H](CCCCN)C(N)=O [(+) peptide] (6FAM-AKAKAKAKAKAKAKAKAKAK-NH2)
average maximum concentration of peptide accumulated inside mucus (enrichment at mucus-buffer interface) (mucus from high-risk pregnant patients (n = 9), microfluidic channel, 4 μM FAM-labelled peptide in H7 buffer pH 7, room temperature, epifluorescence read-out): 19.3 µM | average maximum concentration of peptide accumulated inside mucus (enrichment at mucus-buffer interface) (mucus from low-risk pregnant women (n = 15), microfluidic channel, 4 μM FAM-labelled peptide in H7 buffer pH 7, room temperature, epifluorescence read-out): 36.9 µM | average maximum concentration of peptide accumulated inside mucus (enrichment at mucus-buffer interface) (mucus from ovulating non-pregnant women (n = 20), microfluidic channel, 4 μM FAM-labelled peptide in H7 buffer (20 mM HEPES, 20 mM NaCl, pH 7), room temperature, epifluorescence read-out): 10.6 µM

C[C@H](NC(=O)c1ccc2c(c1)C1(OC2=O)c2ccc(O)cc2Oc2cc(O)ccc21)C(=O)N[C@@H](CCC(=O)O)C(=O)N[C@@H](C)C(=O)N[C@@H](CCC(=O)O)C(=O)N[C@@H](C)C(=O)N[C@@H](CCC(=O)O)C(=O)N[C@@H](C)C(=O)N[C@@H](CCC(=O)O)C(=O)N[C@@H](C)C(=O)N[C@@H](CCC(=O)O)C(=O)N[C@@H](C)C(=O)N[C@@H](CCC(=O)O)C(=O)N[C@@H](C)C(=O)N[C@@H](CCC(=O)O)C(=O)N[C@@H](C)C(=O)N[C@@H](CCC(=O)O)C(=O)N[C@@H](C)C(=O)N[C@@H](CCC(=O)O)C(=O)N[C@@H](C)C(=O)N[C@@H](CCC(=O)O)C(N)=O [(−) peptide] (6FAM-AEAEAEAEAEAEAEAEAEAE-NH2)
concentration of the peptide at the end of the channel (450 μm) (mucus from high-risk pregnant patients (n = 9), 4 μM FAM-labelled peptide in H7 buffer pH 7, room temperature, epifluorescence read-out): 1100 nM | retention (enrichment) of the peptide at the mucus barrier interface (mucus from high-risk pregnant patients (n = 9), microfluidic channel, 4 μM FAM-labelled peptide in H7 buffer pH 7, room temperature): not detected in any of the high-risk samples | concentration of the peptide at the end of the channel (450 μm) (mucus from low-risk pregnant patients (n = 15), 4 μM FAM-labelled peptide in H7 buffer pH 7, room temperature, epifluorescence read-out): 500 nM | peptide concentration gradient through the mucus layer compared with buffer (mucus from ovulating women (n = 20), microfluidic channel, 4 μM FAM-labelled peptide in H7 buffer pH 7, room temperature, epifluorescence read-out): nearly identical with or without mucus present
